The values below are quoted from earlier work in patent US9314419B2, “Oral care compositions with a reduced bitter taste perception” (The Procter & Gamble Company, priority 2014, dated 2016).

The conditions of this data set: concentration level where the cooling effect can be clearly recognized.

Structures are written as SMILES.

Regarding `CC(C)[C@@H]1CC[C@@H](C)C[C@@H]1O` [Example 1-neomenthol, 1-neomenthol], the cooling threshold result is recorded as “about 3,000 ppb”.

With `CC(C)[C@@H]1CC[C@@H](C)C[C@H]1O` [L-menthol], the cooling threshold result is reported as “about 800 ppb”.

With `CC(C)[C@@H]1CC[C@@H](C)C[C@@H]1O` [d-neomenthol], the cooling threshold result is recorded as “about 25,000 ppb”.
